What all share (test): radiometric enzymatic assay
What all share (assay type): biochemical

Assay [1] has as its target T1, CK1γ1 (Homo sapiens, UniProt Q9HCP0). The following applies: read-out: NB IC50 CK1γ3.
Assay [2] has as its target T2, CK1γ2 (Homo sapiens, UniProt P78368). The following applies: read-out: Enzymatic IC50 CK1γ2.
Assay [3] addresses T1, CK1γ1. As to conditions: read-out: Enzymatic IC50 CK1γ1.
Assay [4] addresses T2, CK1γ2. As to conditions: read-out: Enzymatic IC50 CK1γ2. The source holds these as a separate data set.
In assay [5] the target is T2, CK1γ2. As to conditions: read-out: Enzymatic IC50 CK1γ2. The source holds these as a separate data set.
Assay [6] addresses T1, CK1γ1. The following applies: read-out: Enzymatic IC50 CK1γ1. The source holds these as a separate data set.
The target of assay [7] is T2, CK1γ2. The following applies: read-out: Enzymatic IC50 CK1γ2. This is another data set of the same source.
Assay [8] addresses T1, CK1γ1. The following applies: read-out: Enzymatic IC50 CK1γ1. The source holds these as a separate data set.

IC50 data for four molecules are collected here from publication PMC12458359 (bioRxiv, 2025).

The structures appear in SMILES notation. Where two headings read alike, the source gives them in different places.

T2 sequence (P78368 whole entry): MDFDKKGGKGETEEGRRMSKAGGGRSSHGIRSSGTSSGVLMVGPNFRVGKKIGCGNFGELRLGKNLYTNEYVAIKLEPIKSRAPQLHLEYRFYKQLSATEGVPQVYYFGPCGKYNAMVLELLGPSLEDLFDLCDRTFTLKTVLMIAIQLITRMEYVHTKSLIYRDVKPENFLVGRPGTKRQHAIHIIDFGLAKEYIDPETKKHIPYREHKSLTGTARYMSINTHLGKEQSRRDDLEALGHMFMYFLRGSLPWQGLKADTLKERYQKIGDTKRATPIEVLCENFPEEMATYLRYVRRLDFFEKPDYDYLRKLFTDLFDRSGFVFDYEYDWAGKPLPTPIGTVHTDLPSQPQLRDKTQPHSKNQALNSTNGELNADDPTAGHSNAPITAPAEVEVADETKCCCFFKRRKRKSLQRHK
T1 sequence (Q9HCP0 whole entry): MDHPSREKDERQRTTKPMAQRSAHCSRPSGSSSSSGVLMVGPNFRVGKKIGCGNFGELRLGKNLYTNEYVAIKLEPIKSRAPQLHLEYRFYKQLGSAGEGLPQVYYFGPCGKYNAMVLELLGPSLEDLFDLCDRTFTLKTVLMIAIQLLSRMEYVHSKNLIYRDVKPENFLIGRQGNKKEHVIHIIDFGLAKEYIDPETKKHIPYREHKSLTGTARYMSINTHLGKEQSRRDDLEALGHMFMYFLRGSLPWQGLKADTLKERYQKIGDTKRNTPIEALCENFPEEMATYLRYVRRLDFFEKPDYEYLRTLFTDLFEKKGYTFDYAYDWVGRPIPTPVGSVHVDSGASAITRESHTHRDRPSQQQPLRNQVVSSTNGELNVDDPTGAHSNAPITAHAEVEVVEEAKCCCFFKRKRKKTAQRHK

Consider `N#Cc1ccc2[nH]c(Nc3ccc(N4CCCCC4)c(Cl)c3)nc2c1` [compound 20, 2-((3-chloro-4-(piperidin-1-yl)phenyl)amino)-1H-benzo[d]imidazole-5-carbonitrile], for which the IC50 (as a rule, the concentration at which inhibition is half-maximal) is 30 nM on CK1γ1 [1] and 9 nM at CK1γ2 [2].
As for `N#Cc1ccc2nc(Nc3ccc(N4CCOCC4)c(Cl)c3)[nH]c2c1` [compound 14, 2-((3-chloro-4-morpholinophenyl)amino)-1H-benzo[d]imidazole-6-carbonitrile], the IC50 was found to be 28 nM at CK1γ1 [3] and 7 nM on CK1γ2 [4].
As to `CN1CCN(c2ccc(Nc3nc4ccc(C#N)cc4[nH]3)cc2Cl)CC1` [compound 21, 2-((3-chloro-4-(4-methylpiperazin-1-yl)phenyl)amino)-1H-benzo[d]imidazole-6-carbonitrile], the IC50 worked out at 14 nM at CK1γ2 [5] and 36 nM on CK1γ1 [6].
With `N#Cc1ccc2nc(Nc3ccc(N4CCOCC4)c(Br)c3)[nH]c2c1` [compound 15, 2-((3-bromo-4-morpholinophenyl)amino)-1H-benzo[d]imidazole-6-carbonitrile], the IC50 on CK1γ2 [7] came to 10 nM; at CK1γ1 [8], 40 nM.
